Assay results published in patent US20250270191A1, “QUINOLONE BCL6 BIFUNCTIONAL DEGRADERS” (Treeline Biosciences, Inc., priority 2022, published 2025).

Target: T1, Human BCL6 protein (N-terminal HiBiT tagged BCL6 in HT1080 cells) (Homo sapiens, UniProt P41182+Q96SW2)
T1 construct: Human BCL6 protein coding open reading frame; expressed in transfected cells; host or cells: HT1080 (ATCC CCL-121), stably transduced with lentivirus pLV-UBC-N-HiBiT-BCL6-PGK-puro
Experiment: HiBiT based BCL6 degradation assay
Assay type: cell-based
Conditions: HT1080 cells expressing N-terminal HiBiT tagged BCL6; 5 hours incubation; BCL6 degradation normalized with DMSO control
Outline: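 HT1080 cells stably expressing N-terminal HiBiT-BCL6 were treated with compound dilution series for 5 h at 37° C. in RPMI 1640 with 10% FBS. HiBiT lytic luminescence read after 15 min; degradation normalized to DMSO, with curves fitted by four-parameter logistic model.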

Row | Ymin (5 hr) | Structure (SMILES)
1 | +++ (25% < Ymin ≤ 50%) | CNC(=O)COc1cc2cc(Nc3nc(N4CCN(C(C)(C)C5CCN(c6ccc7c(C8CCC(=O)NC8=O)nn(C)c7c6)CC5)CC4)ncc3Cl)ccc2n(C)c1=O (stereo not shown) [Compound 340, 2-((6-((5-chloro-2-(4-(2-(1-(3-(2,6-dioxopiperidin-3-yl)-1-methyl-1H-indazol-6-yl)piperidin-4-yl)propan-2-yl)piperazin-1-yl)pyrimidin-4-yl)amino)-1-methyl-2-oxo-1,2-dihydroquinolin-3-yl)oxy)-N-methylacetamide]
2 | +++ (25% < Ymin ≤ 50%) | CNC(=O)COc1cc2cc(Nc3nc(N4CCC5(CCC(Nc6ccc7c(C8CCC(=O)NC8=O)nn(C)c7c6)CC5)C4)ncc3Cl)ccc2n(C)c1=O (stereo not shown) [Compound 343, 2-((6-((5-chloro-2-(8-((3-(2,6-dioxopiperidin-3-yl)-1-methyl-1H-indazol-6-yl)amino)-2-azaspiro[4.5]decan-2-yl)pyrimidin-4-yl)amino)-1-methyl-2-oxo-1,2-dihydroquinolin-3-yl)oxy)-N-methylacetamide]
3 | ++ (50% < Ymin ≤ 70%) | CNC(=O)COc1cc2cc(Nc3nc(N4CCC[C@@H](COc5ccc6c(C7CCC(=O)NC7=O)nn(C)c6c5)C4)ncc3Cl)ccc2n(C)c1=O (stereo partly drawn) [Compound 302b, 2-((6-((5-chloro-2-((3R)-3-(((3-(2,6-dioxopiperidin-3-yl)-1-methyl-1H-indazol-6-yl)oxy)methyl)piperidin-1-yl)pyrimidin-4-yl)amino)-1-methyl-2-oxo-1,2-dihydroquinolin-3-yl)oxy)-N-methylacetamide]
4 | ++ (50% < Ymin ≤ 70%) | CNC(=O)COc1cc2cc(Nc3nc(N4CCC[C@H](COc5ccc6c(C7CCC(=O)NC7=O)nn(C)c6c5)C4)ncc3Cl)ccc2n(C)c1=O (stereo partly drawn) [Compound 302a, 2-((6-((5-chloro-2-((3S)-3-(((3-(2,6-dioxopiperidin-3-yl)-1-methyl-1H-indazol-6-yl)oxy)methyl)piperidin-1-yl)pyrimidin-4-yl)amino)-1-methyl-2-oxo-1,2-dihydroquinolin-3-yl)oxy)-N-methylacetamide]
5 | +++ (25% < Ymin ≤ 50%) | CNC(=O)COc1cc2cc(Nc3nc(NC[C@H]4CC[C@@H](CNc5ccc6c(C7CCC(=O)NC7=O)nn(C)c6c5)CC4)ncc3Cl)ccc2n(C)c1=O (stereo partly shown) [Compound 293a, 2-((6-((5-chloro-2-((((1s,4s)-4-(((3-(2,6-dioxopiperidin-3-yl)-1-methyl-1H-indazol-6-yl)amino)methyl)cyclohexyl)methyl)amino)pyrimidin-4-yl)amino)-1-methyl-2-oxo-1,2-dihydroquinolin-3-yl)oxy)-N-methylacetamide]
6 | + (Ymin > 70%) | CNC(=O)COc1cc2cc(Nc3nc(N4CCC[C@H]4CNc4cccc5c(C6CCC(=O)NC6=O)nn(C)c45)ncc3Cl)ccc2n(C)c1=O (stereo partly drawn) [Compound 300b, 2-((6-((5-chloro-2-((2S)-2-(((3-(2,6-dioxopiperidin-3-yl)-1-methyl-1H-indazol-7-yl)amino)methyl)pyrrolidin-1-yl)pyrimidin-4-yl)amino)-1-methyl-2-oxo-1,2-dihydroquinolin-3-yl)oxy)-N-methylacetamide]
7 | +++ (25% < Ymin ≤ 50%) | CNC(=O)COc1cc2cc(Nc3nc(N4CCC(CC5CCN(c6ccc7c(C8CCC(=O)NC8=O)nn(C)c7c6)CC5)CC4)ncc3Cl)ccc2n(C)c1=O (stereo not shown) [Compound 288, 2-((6-((5-chloro-2-(4-((1-(3-(2,6-dioxopiperidin-3-yl)-1-methyl-1H-indazol-6-yl)piperidin-4-yl)methyl)piperidin-1-yl)pyrimidin-4-yl)amino)-1-methyl-2-oxo-1,2-dihydroquinolin-3-yl)oxy)-N-methylacetamide]
8 | ++ (50% < Ymin ≤ 70%) | CNC(=O)COc1cc2cc(Nc3nc(N4CCC[C@@H](CNc5ccc6c(C7CCC(=O)NC7=O)nn(C)c6c5)C4)ncc3Cl)ccc2n(C)c1=O (stereo partly drawn) [Compound 261a, 2-((6-((5-chloro-2-((3S)-3-(((3-(2,6-dioxopiperidin-3-yl)-1-methyl-1H-indazol-6-yl)amino)methyl)piperidin-1-yl)pyrimidin-4-yl)amino)-1-methyl-2-oxo-1,2-dihydroquinolin-3-yl)oxy)-N-methylacetamide]
9 | ++ (50% < Ymin ≤ 70%) | CNC(=O)COc1cc2cc(Nc3nc(N4CCC[C@@H](CNc5cccc6c(C7CCC(=O)NC7=O)nn(C)c56)C4)ncc3Cl)ccc2n(C)c1=O (stereo partly drawn) [Compound 266a, 2-((6-((5-chloro-2-((3S)-3-(((3-(2,6-dioxopiperidin-3-yl)-1-methyl-1H-indazol-7-yl)amino)methyl)piperidin-1-yl)pyrimidin-4-yl)amino)-1-methyl-2-oxo-1,2-dihydroquinolin-3-yl)oxy)-N-methylacetamide]
10 | ++ (50% < Ymin ≤ 70%) | CNC(=O)COc1cc2cc(Nc3nc(N4CC5CCC(Nc6ccc7c(C8CCC(=O)NC8=O)nn(C)c7c6)CC5C4)ncc3Cl)ccc2n(C)c1=O (stereo not shown) [Compound 338, 2-((6-((5-chloro-2-(5-((3-(2,6-dioxopiperidin-3-yl)-1-methyl-1H-indazol-6-yl)amino)octahydro-2H-isoindol-2-yl)pyrimidin-4-yl)amino)-1-methyl-2-oxo-1,2-dihydroquinolin-3-yl)oxy)-N-methylacetamide]
11 | +++ (25% < Ymin ≤ 50%) | CNC(=O)COc1cc2cc(Nc3nc(N4CCC[C@@H]4CNc4ccc5c(C6CCC(=O)NC6=O)nn(C)c5c4)ncc3Cl)ccc2n(C)c1=O (stereo partly drawn) [Compound 279b, 2-((6-((5-chloro-2-((2R)-2-(((3-(2,6-dioxopiperidin-3-yl)-1-methyl-1H-indazol-6-yl)amino)methyl)pyrrolidin-1-yl)pyrimidin-4-yl)amino)-1-methyl-2-oxo-1,2-dihydroquinolin-3-yl)oxy)-N-methylacetamide]

The next lines start with the molecule.

Row | Structure (SMILES) | Ymin (5 hr)
12 | CNC(=O)COc1cc2cc(Nc3nc(N4CCC[C@H](CCNc5ccc6c(C7CCC(=O)NC7=O)nn(C)c6c5)C4)ncc3Cl)ccc2n(C)c1=O (single isomer, unassigned) [Compound 290a] | ++ (50% < Ymin ≤ 70%)
13 | CNC(=O)COc1cc2cc(Nc3nc(N4CCN(CC5CCC6(CC5)CN(c5cccc7c(C8CCC(=O)NC8=O)nn(C)c57)C6)CC4)ncc3Cl)ccc2n(C(C)C)c1=O (stereo not shown) [Compound 311, 2-((6-((5-chloro-2-(4-((2-(3-(2,6-dioxopiperidin-3-yl)-1-methyl-1H-indazol-7-yl)-2-azaspiro[3.5]nonan-7-yl)methyl)piperazin-1-yl)pyrimidin-4-yl)amino)-1-isopropyl-2-oxo-1,2-dihydroquinolin-3-yl)oxy)-N-methylacetamide] | ++ (50% < Ymin ≤ 70%)
14 | CNC(=O)COc1cc2cc(Nc3nc(N4CCC[C@H]4CNc4ccc5c(C6CCC(=O)NC6=O)nn(C)c5c4)ncc3Cl)ccc2n(C)c1=O (stereo partly drawn) [Compound 279a, 2-((6-((5-chloro-2-((2S)-2-(((3-(2,6-dioxopiperidin-3-yl)-1-methyl-1H-indazol-6-yl)amino)methyl)pyrrolidin-1-yl)pyrimidin-4-yl)amino)-1-methyl-2-oxo-1,2-dihydroquinolin-3-yl)oxy)-N-methylacetamide] | ++ (50% < Ymin ≤ 70%)
15 | CNC(=O)COc1cc2cc(Nc3nc(NC[C@H]4CC[C@H](Nc5cccc(C6CCC(=O)NC6=O)c5)CC4)ncc3Cl)ccc2n(C)c1=O (stereo partly shown) [Compound 262b, 2-((6-((5-chloro-2-((((1r,4r)-4-((3-(2,6-dioxopiperidin-3-yl)phenyl)amino)cyclohexyl)methyl)amino)pyrimidin-4-yl)amino)-1-methyl-2-oxo-1,2-dihydroquinolin-3-yl)oxy)-N-methylacetamide] | ++ (50% < Ymin ≤ 70%)
16 | CNC(=O)COc1cc2cc(Nc3nc(N4CCN(CC5CCN(c6cccc7c(C8CCC(=O)NC8=O)nn(C)c67)CC5)CC4)ncc3Cl)ccc2n(C(C)C)c1=O (stereo not shown) [Compound 107, 2-((6-((5-chloro-2-(4-((1-(3-(2,6-dioxopiperidin-3-yl)-1-methyl-1H-indazol-7-yl)piperidin-4-yl)methyl)piperazin-1-yl)pyrimidin-4-yl)amino)-1-isopropyl-2-oxo-1,2-dihydroquinolin-3-yl)oxy)-N-methylacetamide] | ++++ (Ymin ≤ 25%)
17 | CNC(=O)COc1cc2cc(Nc3nc(NC[C@H]4CC[C@@H](Nc5cccc6c(C7CCC(=O)NC7=O)nn(C)c56)CC4)ncc3Cl)ccc2n(C)c1=O (stereo partly shown) [Compound 304a, 2-((6-((5-chloro-2-((((1s,4s)-4-((3-(2,6-dioxopiperidin-3-yl)-1-methyl-1H-indazol-7-yl)amino)cyclohexyl)methyl)amino)pyrimidin-4-yl)amino)-1-methyl-2-oxo-1,2-dihydroquinolin-3-yl)oxy)-N-methylacetamide] | ++ (50% < Ymin ≤ 70%)
18 | CNC(=O)COc1cc2cc(Nc3nc(N4CCC[C@H](CNc5ccc6c(C7CCC(=O)NC7=O)nn(C)c6c5)C4)ncc3Cl)ccc2n(C)c1=O (stereo partly drawn) [Compound 261b, 2-((6-((5-chloro-2-((3R)-3-(((3-(2,6-dioxopiperidin-3-yl)-1-methyl-1H-indazol-6-yl)amino)methyl)piperidin-1-yl)pyrimidin-4-yl)amino)-1-methyl-2-oxo-1,2-dihydroquinolin-3-yl)oxy)-N-methylacetamide] | +++ (25% < Ymin ≤ 50%)
19 | CNC(=O)COc1cc2cc(Nc3nc(N4CCC[C@H](COc5cccc6c(C7CCC(=O)NC7=O)nn(C)c56)C4)ncc3Cl)ccc2n(C)c1=O (stereo partly drawn) [Compound 301a, 2-((6-((5-chloro-2-((3S)-3-(((3-(2,6-dioxopiperidin-3-yl)-1-methyl-1H-indazol-7-yl)oxy)methyl)piperidin-1-yl)pyrimidin-4-yl)amino)-1-methyl-2-oxo-1,2-dihydroquinolin-3-yl)oxy)-N-methylacetamide] | ++ (50% < Ymin ≤ 70%)
